Measured values from PMC7576618 (British Journal of Clinical Pharmacology, 2020).

Tested on: healthy subjects
Test: SAD study: safety and tolerability
Assay type: in vivo, human
[1] = SAD Parts A and C, fasted conditions (total TS‐134)
[2] = SAD Parts A and C, fed conditions (total TS‐134)
[3] = SAD Parts A and C, 5 mg fasted (n = 6)
[4] = SAD Parts A and C, 10 mg fasted (n = 6)
[5] = SAD Parts A and C, 10 mg fed (n = 5)
[6] = SAD Parts A and C, 20 mg fasted (n = 7)
[7] = SAD Parts A and C, 20 mg fed (n = 3)
[8] = SAD Parts A and C, Total TS‐134 fasted (n = 19)
[9] = SAD Parts A and C, Total TS‐134 fed (n = 8)

In the case of `CC(C)[C@@H]1CC[C@@H](C)C[C@H]1OC(=O)O[C@@H](C)OC(=O)[C@H]1[C@@H]2C[C@H](F)[C@@](N)(C(=O)O)[C@@H]21.O=S(=O)(O)c1ccccc1` [TS‐134, (1S,2S,3S,5R,6S)‐2‐amino‐3‐ fluoro‐6‐({(1S)‐1‐[({[(1R,2S,5R)‐5‐methyl‐2‐(propan‐2‐yl)cyclohexyl]oxy}carbonyl)oxy]ethoxy}carbonyl)bicyclo[3.1.0]hexane‐2‐carboxylic acid monobenzenesulfonate], the incidence of headache (SAD Part B, fed 10 mg TS‐134) is reported as 25.0%, the “incidence of post lumbar puncture syndrome” value (SAD Part B, fed 10 mg TS‐134) is reported as 37.5% and the incidence of somnolence (SAD Part B, fed 10 mg TS‐134) is reported as 25.0%. For the same compound, the incidence of vomiting (SAD Part B, fed 10 mg TS‐134) was 25.0%, the Abnormal dreams (SAD Part B, 10 mg fed (n = 8)) was 0 Number of subjects (%) and the Dizziness (SAD Part B, 10 mg fed (n = 8)) was 0 Number of subjects (%). For the same compound, the Headache (SAD Part B, 10 mg fed (n = 8)) was 2 (25.0) Number of subjects (%), the Insomnia (SAD Part B, 10 mg fed (n = 8)) was 0 Number of subjects (%) and the Nausea (SAD Part B, 10 mg fed (n = 8)) was 0 Number of subjects (%). For the same compound, the “Number of subjects with at least 1 TEAE” value (SAD Part B, 10 mg fed (n = 8)) was 6 (75.0) Number of subjects (%), the “Post lumbar puncture syndrome” value (SAD Part B, 10 mg fed (n = 8)) was 3 (37.5) Number of subjects (%) and the Pruritus (SAD Part B, 10 mg fed (n = 8)) was 0 Number of subjects (%). For the same compound, the Somnolence (SAD Part B, 10 mg fed (n = 8)) was 2 (25.0) Number of subjects (%), the “Total number of TEAEs” value (SAD Part B, 10 mg fed (n = 8)) was 10 and the Vomiting (SAD Part B, 10 mg fed (n = 8)) was 2 (25.0) Number of subjects (%). The incidence of nausea [1] was 21.1%, the incidence of vomiting [1] was 31.6% and the incidence of headache [2] was 25.0%. For the same compound, the incidence of nausea [2] was 25.0%, the Abnormal dreams [3] was 0 Number of subjects (%) and the Dizziness [3] was 0 Number of subjects (%). The Headache [3] was 1 (16.7) Number of subjects (%), the Insomnia [3] was 0 Number of subjects (%) and the Nausea [3] was 0 Number of subjects (%). For the same compound, the “Number of subjects with at least 1 TEAE” value [3] was 2 (33.3) Number of subjects (%), the “Post lumbar puncture syndrome” value [3] was 0 Number of subjects (%) and the Pruritus [3] was 0 Number of subjects (%). The Somnolence [3] was 0 Number of subjects (%), the “Total number of TEAEs” value [3] was 2 and the Vomiting [3] was 0 Number of subjects (%). For the same compound, the Abnormal dreams [4] was 0 Number of subjects (%), the Dizziness [4] was 0 Number of subjects (%) and the Headache [4] was 0 Number of subjects (%). For the same compound, the Insomnia [4] was 0 Number of subjects (%), the Nausea [4] was 1 (16.7) Number of subjects (%) and the “Number of subjects with at least 1 TEAE” value [4] was 4 (66.7) Number of subjects (%). For the same compound, the “Post lumbar puncture syndrome” value [4] was 0 Number of subjects (%), the Pruritus [4] was 0 Number of subjects (%) and the Somnolence [4] was 1 (16.7) Number of subjects (%). For the same compound, the “Total number of TEAEs” value [4] was 6, the Vomiting [4] was 2 (33.3) Number of subjects (%) and the Abnormal dreams [5] was 0 Number of subjects (%). For the same compound, the Dizziness [5] was 0 Number of subjects (%), the Headache [5] was 1 (20.0) Number of subjects (%) and the Insomnia [5] was 0 Number of subjects (%). The Nausea [5] was 1 (20.0) Number of subjects (%), the “Number of subjects with at least 1 TEAE” value [5] was 3 (60.0) Number of subjects (%) and the “Post lumbar puncture syndrome” value [5] was 0 Number of subjects (%). For the same compound, the Pruritus [5] was 0 Number of subjects (%), the Somnolence [5] was 0 Number of subjects (%) and the “Total number of TEAEs” value [5] was 4. The Vomiting [5] was 1 (20.0) Number of subjects (%), the Abnormal dreams [6] was 0 Number of subjects (%) and the Dizziness [6] was 0 Number of subjects (%). The Headache [6] was 1 (14.3) Number of subjects (%), the Insomnia [6] was 0 Number of subjects (%) and the Nausea [6] was 3 (42.9) Number of subjects (%). For the same compound, the “Number of subjects with at least 1 TEAE” value [6] was 5 (71.4) Number of subjects (%), the “Post lumbar puncture syndrome” value [6] was 0 Number of subjects (%) and the Pruritus [6] was 0 Number of subjects (%). For the same compound, the Somnolence [6] was 0 Number of subjects (%), the “Total number of TEAEs” value [6] was 11 and the Vomiting [6] was 4 (57.1) Number of subjects (%). For the same compound, the Abnormal dreams [7] was 0 Number of subjects (%), the Dizziness [7] was 0 Number of subjects (%) and the Headache [7] was 1 (33.3) Number of subjects (%). For the same compound, the Insomnia [7] was 0 Number of subjects (%), the Nausea [7] was 1 (33.3) Number of subjects (%) and the “Number of subjects with at least 1 TEAE” value [7] was 1 (33.3) Number of subjects (%). For the same compound, the “Post lumbar puncture syndrome” value [7] was 0 Number of subjects (%), the Pruritus [7] was 0 Number of subjects (%) and the Somnolence [7] was 0 Number of subjects (%). The “Total number of TEAEs” value [7] was 3, the Vomiting [7] was 0 Number of subjects (%) and the Abnormal dreams [8] was 0 Number of subjects (%). The Dizziness [8] was 0 Number of subjects (%), the Headache [8] was 2 (10.5) Number of subjects (%) and the Insomnia [8] was 0 Number of subjects (%). For the same compound, the Nausea [8] was 4 (21.1) Number of subjects (%), the “Number of subjects with at least 1 TEAE” value [8] was 11(57.9) Number of subjects (%) and the “Post lumbar puncture syndrome” value [8] was 0 Number of subjects (%). For the same compound, the Pruritus [8] was 0 Number of subjects (%), the Somnolence [8] was 1 (5.3) Number of subjects (%) and the “Total number of TEAEs” value [8] was 19. For the same compound, the Vomiting [8] was 6 (31.6) Number of subjects (%), the Abnormal dreams [9] was 0 Number of subjects (%) and the Dizziness [9] was 0 Number of subjects (%). For the same compound, the Headache [9] was 2 (25.0) Number of subjects (%), the Insomnia [9] was 0 Number of subjects (%) and the Nausea [9] was 2 (25.0) Number of subjects (%). For the same compound, the “Number of subjects with at least 1 TEAE” value [9] was 4 (50.0) Number of subjects (%), the “Post lumbar puncture syndrome” value [9] was 0 Number of subjects (%) and the Pruritus [9] was 0 Number of subjects (%).
